EP4610262A1, “MACROCYCLIC COMPOUND AS CDK9 INHIBITOR AND USE THEREOF” (Artivila Biopharma, priority 2022, dated 2024)
Where two headings read alike, the source gives them in different places.

Legend:
MV-4-11 = experiment: CDK9 cell activity assay, cell growth inhibition (CellTiter-Glo, 72 hours); type: cell-based; details: Homo sapiens, MV4-11
Experimental: (§1) In the CDK9 cell activity assay, the cell line MV-4-11 was cultured in IMDM culture medium containing 10% fetal bovine serum (containing 100 U/mL penicillin and 0.1 g/L streptomycin); the cell line HCC1187 was cultured in RPMI-1640 culture medium containing 10% fetal bovine serum (containing 100 U/mL penicillin and 0.1 g/L streptomycin); the cell line Mia Paca-2 was cultured in DMEM containing 10% fetal bovine serum and 2.5% horse serum (containing 100 U/mL penicillin and 0.1 g/L streptomycin); and the cell line A375 was cultured in RPMI-1640 culture medium containing 10% fetal bovine serum (containing 100 U/mL penicillin and 0.1 g/L streptomycin). All cells were cultured in an incubator with saturated humidity at 37°C with 5% CO2.
(§2) When MV-4-11 cells, HCC1187 cells, Mia Paca-2 cells, and A375 cells grew to 80%-90% confluence, they were digested with trypsin, resuspended, counted, and diluted to a certain cell density with complete medium. 100 µL of the cells was plated into each well of a 96-well plate, and the complete medium was used as a background control. The cells were cultured overnight in an incubator with saturated humidity at 37°C with 5% CO2. The compounds were diluted with DMSO to a final concentration of 200×. 3 µL of the stock solution of the above compounds in DMSO was added to 197 µL of complete medium, and 50 µL of the compound diluted in the medium was added to the cells of each well. The cells were cultured in an incubator with saturated humidity at 37°C with 5% CO2 for 72 hours. After 72 hours, the culture plates were placed at room temperature for equilibrium. 40 µL of CellTiter-Glo® reagent was added to each well. The plate was mixed evenly on a shaker for 2 minutes to lyse the cells then incubated at room temperature for 60 minutes to stabilize the chemiluminescent signal, and the chemiluminescence was read using a PE EnVision microplate reader. The inhibition rate on cell growth was calculated as % Inh = (DMSO well - compound treatment well) / (DMSO well - background well) x 100, and fitting was performed using GraphPad Prism 5 to obtain the IC50 values against cell growth.

CDK9 = CDK9 (Homo sapiens, UniProt P50750); experiment: Inhibition of CDK9 kinase activity (caliper mobility shift assay); type: biochemical; details: for IC50: 10 concentrations from 10 µM, three-fold dilutions; for inhibition at 0.01 µM: compound at 10 nM
Sequence of CDK9 (P50750 whole entry): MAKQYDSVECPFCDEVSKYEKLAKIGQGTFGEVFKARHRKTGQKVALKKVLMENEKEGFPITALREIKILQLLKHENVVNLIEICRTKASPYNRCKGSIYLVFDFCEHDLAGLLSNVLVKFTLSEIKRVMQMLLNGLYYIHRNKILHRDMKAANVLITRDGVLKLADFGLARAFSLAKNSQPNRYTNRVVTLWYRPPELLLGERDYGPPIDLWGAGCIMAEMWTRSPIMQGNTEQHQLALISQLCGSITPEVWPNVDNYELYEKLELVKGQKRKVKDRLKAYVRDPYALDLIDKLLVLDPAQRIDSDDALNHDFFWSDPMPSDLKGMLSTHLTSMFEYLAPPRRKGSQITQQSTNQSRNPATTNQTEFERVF
Sequence of CDK9 (O60563 whole entry partner): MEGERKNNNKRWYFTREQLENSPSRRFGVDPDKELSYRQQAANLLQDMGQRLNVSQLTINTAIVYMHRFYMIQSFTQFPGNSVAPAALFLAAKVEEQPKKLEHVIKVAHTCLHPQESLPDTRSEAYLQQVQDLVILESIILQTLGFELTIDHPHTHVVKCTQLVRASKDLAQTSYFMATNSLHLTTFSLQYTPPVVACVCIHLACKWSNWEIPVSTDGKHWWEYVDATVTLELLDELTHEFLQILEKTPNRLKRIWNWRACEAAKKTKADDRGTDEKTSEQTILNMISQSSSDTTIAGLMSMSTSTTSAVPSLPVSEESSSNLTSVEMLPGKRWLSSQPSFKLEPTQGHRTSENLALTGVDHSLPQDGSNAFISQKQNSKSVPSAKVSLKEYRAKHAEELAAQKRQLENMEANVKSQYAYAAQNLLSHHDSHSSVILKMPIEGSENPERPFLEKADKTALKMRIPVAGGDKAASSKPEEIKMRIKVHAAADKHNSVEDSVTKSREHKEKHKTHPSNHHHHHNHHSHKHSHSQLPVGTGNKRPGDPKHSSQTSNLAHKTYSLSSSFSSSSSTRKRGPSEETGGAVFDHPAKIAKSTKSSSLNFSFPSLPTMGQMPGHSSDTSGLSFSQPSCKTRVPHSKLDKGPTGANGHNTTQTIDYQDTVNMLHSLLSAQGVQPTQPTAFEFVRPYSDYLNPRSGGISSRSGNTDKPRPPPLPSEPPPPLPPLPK
Experimental: (§3) Compounds were tested at a concentration of 10 nM with detection in duplicate wells, or tested at 10 concentrations starting from 10 µM with three-fold serial dilutions, with detection in duplicate wells.
(§4) The inhibitory effect of the compounds on the activity of CDK9 protein kinase was detected by the caliper mobility shift assay method. 250 nL of the compound at 100-fold final concentration was transferred to a target 384-well-plate with a dispenser Echo 550. A kinase solution at 2.5-fold final concentration was prepared using 1× kinase buffer. 10 µL of the kinase solution at 2.5-fold final concentration was added to the compound well and positive control well respectively. 10 µL of 1× kinase buffer was added to the negative control well. The 384-well plate was centrifuged at 1000 rpm for 30 seconds and incubated at room temperature for 10 minutes. A mixed solution of ATP and kinase substrate at 5/3-fold final concentration was prepared with 1× kinase buffer, and to the 384-well plate was added with 15 µL per well of the mixed solution of ATP and substrate at 5/3-fold final concentration to start the reaction. The plate was centrifuged at 1000 rpm for 30 seconds, shaken to mix evenly, and incubated at room temperature for a corresponding time. 30 µL of detection stopping solution was added to terminate the kinase reaction. The 384-well plate was centrifuged at 1000 rpm for 30 seconds and shaken to mix evenly. The conversion rate was read with Caliper EZ Reader. The percent conversion inhibition rate = (% positive control conversion rate mean - % sample conversion rate / (% positive control conversion rate mean - % negative control conversion rate mean). Among them: negative control wells represent the conversion rate readings of kinase buffer background wells; positive control wells represent the conversion rate readings of wells without inhibition by compound. With the log value of concentration as the x-axis and the percentage inhibition rate as the y-axis, a dose-response curve was fitted using the log (inhibitor) vs. response -Variable slope of the analysis software GraphPad Prism 5 to obtain the IC50 value of each compound on enzyme activity. Calculation formula: y=Bottom + (Top-Bottom)/(1+10^((LogIC50-x) × hillslope)), x: logarithm of inhibitor concentration; y: % inhibition rate.

JAK1 = JAK1 (Homo sapiens, UniProt P23458); experiment: Kinase selectivity, inhibition rate at 10 nM (caliper mobility shift assay); type: biochemical; details: compound at 10 nM
Sequence of JAK1 (P23458 whole entry): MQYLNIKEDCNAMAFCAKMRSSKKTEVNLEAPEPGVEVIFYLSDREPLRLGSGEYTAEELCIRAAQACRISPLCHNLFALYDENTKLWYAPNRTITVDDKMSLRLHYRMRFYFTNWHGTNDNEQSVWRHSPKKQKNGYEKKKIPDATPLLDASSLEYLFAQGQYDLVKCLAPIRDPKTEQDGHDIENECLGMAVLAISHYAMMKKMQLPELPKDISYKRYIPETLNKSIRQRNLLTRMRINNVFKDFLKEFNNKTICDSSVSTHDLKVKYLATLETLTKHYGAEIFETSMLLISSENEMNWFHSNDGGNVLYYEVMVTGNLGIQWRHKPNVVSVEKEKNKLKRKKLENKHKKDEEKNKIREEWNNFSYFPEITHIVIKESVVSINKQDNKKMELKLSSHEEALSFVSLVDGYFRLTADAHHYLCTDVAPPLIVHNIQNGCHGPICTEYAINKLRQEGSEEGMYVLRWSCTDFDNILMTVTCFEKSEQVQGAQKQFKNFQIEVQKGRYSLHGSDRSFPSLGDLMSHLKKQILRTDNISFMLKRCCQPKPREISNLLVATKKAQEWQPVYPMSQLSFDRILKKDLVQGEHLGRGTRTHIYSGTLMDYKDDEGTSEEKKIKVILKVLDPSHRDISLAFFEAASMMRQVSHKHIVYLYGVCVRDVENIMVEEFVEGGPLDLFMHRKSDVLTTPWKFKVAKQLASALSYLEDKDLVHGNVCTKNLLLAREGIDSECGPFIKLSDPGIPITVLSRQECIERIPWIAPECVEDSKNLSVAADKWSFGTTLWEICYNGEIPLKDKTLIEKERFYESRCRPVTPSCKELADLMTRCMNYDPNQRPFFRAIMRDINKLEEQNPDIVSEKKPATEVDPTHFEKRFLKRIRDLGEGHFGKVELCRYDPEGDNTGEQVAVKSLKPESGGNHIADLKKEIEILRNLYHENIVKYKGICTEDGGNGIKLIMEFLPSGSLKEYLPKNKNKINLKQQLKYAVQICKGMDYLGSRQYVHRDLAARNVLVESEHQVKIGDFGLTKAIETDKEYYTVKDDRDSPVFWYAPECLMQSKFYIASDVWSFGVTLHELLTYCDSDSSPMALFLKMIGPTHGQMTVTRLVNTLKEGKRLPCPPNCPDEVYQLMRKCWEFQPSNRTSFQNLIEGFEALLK
Experimental: as §3, §4
(§5) According to the description of the above experiment on kinase activity inhibition, some compounds were tested for their selective inhibition rate against the kinases of CDK7, CDK9, JAK1, JAK2, JAK3, ITK, RET, TYK2, and LRRK2 at 10 nM. The results are shown in Table 3 below: (Inhibition rate range: A>50%; B: 25-49%; C: <25%): […]

JAK2 = JAK2 (Homo sapiens, UniProt O60674); experiment: as above; type: biochemical; details: compound at 10 nM
Sequence of JAK2 (O60674 whole entry): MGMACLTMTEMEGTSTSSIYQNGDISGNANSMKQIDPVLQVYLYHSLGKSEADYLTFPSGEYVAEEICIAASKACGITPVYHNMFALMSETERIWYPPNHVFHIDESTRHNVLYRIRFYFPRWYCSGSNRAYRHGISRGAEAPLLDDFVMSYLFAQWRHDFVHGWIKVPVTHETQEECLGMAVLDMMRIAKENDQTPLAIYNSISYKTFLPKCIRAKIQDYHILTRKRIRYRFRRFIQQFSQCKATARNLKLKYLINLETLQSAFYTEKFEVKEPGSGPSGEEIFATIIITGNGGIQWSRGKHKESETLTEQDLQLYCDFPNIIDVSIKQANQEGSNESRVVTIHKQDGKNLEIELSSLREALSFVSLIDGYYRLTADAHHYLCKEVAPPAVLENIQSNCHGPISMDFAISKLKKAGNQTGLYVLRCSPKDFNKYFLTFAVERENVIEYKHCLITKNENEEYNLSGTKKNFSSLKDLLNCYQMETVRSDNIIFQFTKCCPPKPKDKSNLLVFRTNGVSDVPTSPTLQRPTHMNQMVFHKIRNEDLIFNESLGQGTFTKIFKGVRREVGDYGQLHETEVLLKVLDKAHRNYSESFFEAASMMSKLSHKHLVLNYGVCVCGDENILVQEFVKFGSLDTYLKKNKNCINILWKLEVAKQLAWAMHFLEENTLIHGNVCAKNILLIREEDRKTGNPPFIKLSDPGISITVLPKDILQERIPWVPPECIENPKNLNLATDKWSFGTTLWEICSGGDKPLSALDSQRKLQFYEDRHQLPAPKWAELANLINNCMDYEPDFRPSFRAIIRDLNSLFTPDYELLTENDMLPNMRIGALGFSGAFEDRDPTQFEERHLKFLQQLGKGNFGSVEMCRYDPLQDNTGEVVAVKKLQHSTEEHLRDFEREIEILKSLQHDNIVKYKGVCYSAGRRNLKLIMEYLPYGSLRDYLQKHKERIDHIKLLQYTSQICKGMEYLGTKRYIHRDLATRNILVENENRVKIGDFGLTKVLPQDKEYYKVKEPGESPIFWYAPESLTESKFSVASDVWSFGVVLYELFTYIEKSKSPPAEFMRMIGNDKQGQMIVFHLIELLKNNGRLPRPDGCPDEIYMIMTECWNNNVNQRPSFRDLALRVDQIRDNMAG
Experimental: as §3, §4, §5

LRRK2 = LRRK2 (Homo sapiens, UniProt Q5S007); experiment: as above; type: biochemical; details: compound at 10 nM
Experimental: as §3, §4, §5

Mia-Paca-2 = experiment: CDK9 cell activity assay, cell growth inhibition (CellTiter-Glo, 72 hours); type: cell-based; details: Homo sapiens
Experimental: as §1, §2

A375 = experiment: as above; type: cell-based; details: Homo sapiens, A-375
Experimental: as §1, §2

HCC1187 = experiment: as above; type: cell-based; details: Homo sapiens
Experimental: as §1, §2

[1] = selectivity panel Table 3, read-out: Inhibition rate CDK9
[2] = read-out: Inhibition rate on CDK9 kinase activity

IC50 (MV-4-11) | IC50 (CDK9) | inhibition at 0.01 µM (CDK9; [1]) | inhibition at 0.01 µM (CDK9; [2]) | inhibition at 0.01 µM (JAK1) | inhibition at 0.01 µM (JAK2) | inhibition at 0.01 µM (LRRK2) | Compound | IC50 (Mia-Paca-2) | IC50 (A375) | IC50 (HCC1187)
< 250 nM | < 100 nM | > 50% | > 50% | < 25% | < 25% |  | Clc1cnc2nc1OCCCCCNCc1cccc(c1)N2 [Compound 18, 1^5-chloro-11-oxa-2,5-diaza-1(2,4)-pyrimidina-3(1,3)-benzenacyclodecaphane] |  |  | 
 | < 100 nM | 25 to 49% | 25 to 49% | < 25% | < 25% | < 25% | N#Cc1cnc2nc1NCCCCCNCc1cccc(c1)N2 [Compound 15, 2,5,11-triaza-1(2,4)-pyrimidina-3(1,3)-benzenacycloundecaphan-1^5-carbonitrile] |  |  | 
< 250 nM | < 100 nM | > 50% | > 50% | < 25% | < 25% | < 25% | Cc1ccc2cc1-c1nc(ncc1Cl)Nc1cccc(c1)NC/C=C\CN2 [Compound 12, (Z)-2^5-chloro-1^6-methyl-3,5,10-triaza-2(4,2)-pyrimidina-1,4(1,3)-dibenzocyclodecane-7-ene] | < 250 nM | < 250 nM | < 250 nM

Compound | IC50 (MV-4-11) | IC50 (CDK9) | inhibition at 0.01 µM (CDK9; [1]) | inhibition at 0.01 µM (CDK9; [2]) | inhibition at 0.01 µM (JAK1) | inhibition at 0.01 µM (JAK2) | inhibition at 0.01 µM (LRRK2) | IC50 (Mia-Paca-2) | IC50 (A375) | IC50 (HCC1187)
CN1CCCCCNc2nc(ncc2Cl)Nc2cccc(c2)C1 [Compound 10, 1^5-chloro-5-methyl-2,5,11-triaza-1(2,4)-pyrimidina-3(1,3)-benzene cycloundecane] | < 250 nM | < 100 nM |  | 25 to 49% |  |  |  | 250 to 1000 nM | 250 to 1000 nM | 1000 to 5000 nM
